Reference: ChEMBL document CHEMBL1151797, “Discovery of inhibitors of the channel-activating protease prostasin (CAP1/PRSS8) utilizing structure-based design” (Bioorg Med Chem Lett, 2008)

Target: Prostasin (Homo sapiens, UniProt Q16651)
Assay: Binding affinity to human prostasin

Prostasin, sequence (Q16651 45-322 limits assumed, other chains not shown): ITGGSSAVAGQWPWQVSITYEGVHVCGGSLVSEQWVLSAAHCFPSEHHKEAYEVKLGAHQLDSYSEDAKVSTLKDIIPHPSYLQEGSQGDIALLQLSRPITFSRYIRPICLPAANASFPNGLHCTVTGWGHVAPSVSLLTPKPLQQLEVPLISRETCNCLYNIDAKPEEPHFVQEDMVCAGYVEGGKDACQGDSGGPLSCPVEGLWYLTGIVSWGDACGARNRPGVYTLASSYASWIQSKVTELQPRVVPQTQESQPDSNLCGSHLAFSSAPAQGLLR

Compound	Ki [µM]
NCCCC[C@H](NC(=O)[C@@H]1C[C@@H](OCc2cccc(C(F)(F)F)c2)CN1C(=O)[C@@H](CCc1ccccc1)NC(=O)OCc1ccccc1)C(=O)c1nc2ccccc2o1	0.041
NCCCC[C@H](NC(=O)[C@@H]1C[C@@H](OCC2CCCC2)CN1C(=O)[C@@H](CCc1ccccc1)NC(=O)OCc1ccccc1)C(=O)c1nc2ccccc2o1	0.065
NCCCC[C@H](NC(=O)[C@@H]1C[C@@H](OC(=O)Nc2ccccc2)CN1C(=O)[C@@H](CCc1ccccc1)NC(=O)OCc1ccccc1)C(=O)c1nc2ccccc2o1	0.13
NCCCC[C@H](NC(=O)[C@@H]1[C@@H](c2ccccc2)CCN1C(=O)[C@@H](CCc1ccccc1)NC(=O)OCc1ccccc1)C(=O)c1nc2ccccc2o1	0.267
NCCCC[C@H](NC(=O)[C@@H]1C[C@@H](OC(=O)N2CCCCC2)CN1C(=O)[C@@H](CCc1ccccc1)NC(=O)OCc1ccccc1)C(=O)c1nc2ccccc2o1	0.029
NCCCC[C@H](NC(=O)[C@@H]1C[C@@H](OCc2ccccc2)CN1C(=O)[C@@H](CCc1ccccc1)NC(=O)OCc1ccccc1)C(=O)c1nc2ccccc2o1	0.04
NCCCC[C@H](NC(=O)[C@@H]1C[C@@H](OCC2CCCCC2)CN1C(=O)[C@@H](CCc1ccccc1)NC(=O)OCc1ccccc1)C(=O)c1nc2ccccc2o1	0.019
NCCCC[C@H](NC(=O)[C@@H]1C[C@@H](OC(=O)NCc2ccccc2)CN1C(=O)[C@@H](CCc1ccccc1)NC(=O)OCc1ccccc1)C(=O)c1nc2ccccc2o1	0.06
CN(C)C(=O)O[C@@H]1C[C@@H](C(=O)N[C@@H](CCCCN)C(=O)c2nc3ccccc3o2)N(C(=O)[C@@H](CCc2ccccc2)NC(=O)OCc2ccccc2)C1	1.55
NCCCC[C@H](NC(=O)[C@@H]1CCCN1C(=O)[C@@H](CCc1ccccc1)NC(=O)OCc1ccccc1)C(=O)c1nc2ccccc2o1	1.4
CS(=O)(=O)c1ccc(CNC(=O)O[C@@H]2C[C@@H](C(=O)N[C@@H](CCCCN)C(=O)c3nc4ccccc4o3)N(C(=O)[C@@H](CCc3ccccc3)NC(=O)OCc3ccccc3)C2)cc1	0.176
NCCCC[C@H](NC(=O)[C@H](CCc1ccccc1)NC(=O)[C@H](Cc1cnc[nH]1)NC(=O)OCc1ccccc1)C(=O)c1nc2ccccc2o1	2.1
NCCCC[C@H](NC(=O)[C@@H]1C[C@@H](OC(=O)N2CCCC2)CN1C(=O)[C@@H](CCc1ccccc1)NC(=O)OCc1ccccc1)C(=O)c1nc2ccccc2o1	0.101
NCCCC[C@H](NC(=O)[C@@H]1C[C@@H](OCc2ccc(C(F)(F)F)cc2)CN1C(=O)[C@@H](CCc1ccccc1)NC(=O)OCc1ccccc1)C(=O)c1nc2ccccc2o1	0.028
NCCCC[C@H](NC(=O)[C@@H]1C[C@@H](OCc2ccc(Cl)cc2)CN1C(=O)[C@@H](CCc1ccccc1)NC(=O)OCc1ccccc1)C(=O)c1nc2ccccc2o1	0.012
NCCCC[C@H](NC(=O)[C@@H]1C[C@@H](OCc2ccc(F)cc2)CN1C(=O)[C@@H](CCc1ccccc1)NC(=O)OCc1ccccc1)C(=O)c1nc2ccccc2o1	0.027
Cc1ccc(CO[C@@H]2C[C@@H](C(=O)N[C@@H](CCCCN)C(=O)c3nc4ccccc4o3)N(C(=O)[C@@H](CCc3ccccc3)NC(=O)OCc3ccccc3)C2)cc1	0.045
CC(C)C[C@H](NC(=O)[C@H](Cc1cnc[nH]1)NC(=O)OCc1ccccc1)C(=O)N[C@@H](CCCCN)C(=O)c1nc2ccccc2o1	5.72
NCCCC[C@H](NC(=O)[C@@H]1C[C@@H](O)CN1C(=O)[C@@H](CCc1ccccc1)NC(=O)OCc1ccccc1)C(=O)c1nc2ccccc2o1	1.04
CC(C)C[C@H](NC(=O)[C@H](CCCCN)NC(=O)OCc1ccccc1)C(=O)N[C@@H](CCCCN)C(=O)c1nc2ccccc2o1	15.2
NCCCC[C@H](NC(=O)[C@H](CCc1ccccc1)NC(=O)OCc1ccccc1)C(=O)c1nc2ccccc2o1	> 100
C[C@H]1CCN(C(=O)[C@@H](CCc2ccccc2)NC(=O)OCc2ccccc2)[C@@H]1C(=O)N[C@@H](CCCCN)C(=O)c1nc2ccccc2o1	0.049
CC(C)C[C@H](NC(=O)OCc1ccccc1)C(=O)N[C@@H](CCCCN)C(=O)c1nc2ccccc2o1	> 100
NCCCC[C@H](NC(=O)[C@@H]1C[C@@H](OC(=O)N2CCOCC2)CN1C(=O)[C@@H](CCc1ccccc1)NC(=O)OCc1ccccc1)C(=O)c1nc2ccccc2o1	0.51
